Measured values: US20250002840A1, “MANUFACTURING METHOD OF MIXED POWDER, MIXED POWDER, POWDER, AND POWDER MEDIUM” (FUJIFILM Corporation, priority 2022, published 2025)

Key:
[1] = Overall evaluation based on solubility and liquid property; type: physicochemical; details: based on the evaluation results of solubility and liquid property
[2] = Liquid property (pH) of the solution obtained in the solubility evaluation; type: physicochemical
Method: A pH of the solution obtained in the evaluation of solubility was evaluated. Liquid property was evaluated according to the following evaluation standard.

- Liquid property [2]: Neutral (pH of 6.0 to 8.5)
Structure (SMILES): N[C@@H](CSSC[C@H](N)C(=O)O)C(=O)O [Comparative Example 1, L-cystine]
- Overall evaluation [1]: E (the solution was still turbid even after 1 hour, and/or the pH was other than neutral)
